Converted amounts (≈) assume the structure as drawn.

Data on 26 molecules can be found in ChEMBL document CHEMBL5360530, “Structure activity relationship (SAR) and anticancer activity of pyrrolidine derivatives: Recent developments and future prospects (A review)” (Eur J Med Chem, 2023).

For test [1], the system named is MCF7. Description: Growth inhibition of human MCF7 cells assessed as cell growth inhibition by SRB assay. Format: functional.
Test [2] deals with A549. Description: Anticancer activity against human A549 cells assessed as cell growth inhibition at 100 uM by MTT assay relative to control. Type of test: functional.
Test [3] has as its system HepG2. Briefly: Anticancer activity against human HepG2 cells assessed as cell growth inhibition at 100 uM by MTT assay relative to control. Type of test: functional.
For test [4], the system named is A-431. Description: Anticancer activity against human A-431 cells assessed as cell growth inhibition at 100 uM by MTT assay relative to control. Type of test: functional.
Test [5] deals with MCF7. Description: Anticancer activity against human MCF7 cells assessed as cell growth inhibition at 100 uM by MTT assay relative to control. Type of test: functional.
In test [6] the test system is FaDu. Briefly: Anticancer activity against human FaDu cells assessed as cell growth inhibition measured after 48 hrs. Format: functional, cell-based.
The test system of test [7] is A549. Briefly: Anticancer activity against human A549 cells assessed as cell growth inhibition measured after 48 hrs by MTT assay. Format: functional, cell-based. The settings on record: A549, 48 h.
Test [8] deals with MCF7. Description: Anticancer activity against human MCF7 cells assessed as cell growth inhibition measured after 48 hrs by MTT assay. Type of test: functional, cell-based. The settings on record: MCF7, 48 h.
Test [9] concerns MDA-MB-435. Description: Anticancer activity against human MDA-MB-435 cells assessed as cell growth inhibition by SRB assay. Type of test: functional, cell-based.
For test [10], the system named is MCF7. Description: Anticancer activity against human MCF7 cells assessed as cell growth inhibition by SRB assay. Type of test: functional, cell-based.
The test system of test [11] is HCT-116. Briefly: Anticancer activity against human HCT-116 cells assessed as cell growth inhibition measured after 24 hrs by SRB assay. Conditions: HCT-116, 24 h. Type of test: functional, cell-based.

`O=C(/C=C/c1ccccc1)c1ccc(OCCN2CCCC2)cc1`: in test [1], the 50% growth inhibitory concentration (GI50) is less than 10 µg/mL.
Take `CCCCCCCCCCCCCCCC(=O)N1CC[C@H](COP(=O)([O-])OCC[N+](C)(C)C)C1`: the inhibition at 100 µM worked out at 71.6% in [2], 57.3% in test [3], 74.2% in test [4] and 74.6% in test [5].
Turning to `CCCCCCCC/C=C\CC(=O)N1CC[C@H](OP(=O)([O-])OCC[N+](C)(C)C)C1`, the inhibition at 100 µM in [2] is 4.7%; in [3], 10.1%; in test [4] it was 0.3%; in test [5] it was 22.6%.
Turning to `Cc1cccc(/C=C2\CN(/C=C/c3ccccc3)C[C@]3(C2=O)[C@H](c2cccc(C)c2)[C@@H](Cc2ccccc2)NC32C(=O)Nc3ccccc32)c1` (some centres undefined), the IC50 in test [6] (Homo sapiens, FaDu, 48 h) was 21.8 µM.
On to `O=C(Nc1cc2ccccc2oc1=O)[C@@H]1CCCN1S(=O)(=O)c1ccccc1`, for which the IC50 in test [7] was 7.39 µM; in test [8], 9.34 µM.
Consider `COc1ccccc1/C=C1\CN(/C=C/c2ccccc2)C[C@]2(C1=O)[C@H](c1ccccc1OC)[C@@H](Cc1ccccc1)NC21C(=O)Nc2ccccc21` (some centres undefined), for which, in [6] (Homo sapiens, FaDu, 48 h), the 50% inhibitory concentration (IC50) was no less than 19 µM.
The same measure, in the same setting: to `Cc1ccc(/C=C2\CN(/C=C/c3ccccc3)C[C@]3(C2=O)[C@H](c2ccc(C)cc2)[C@@H](Cc2ccccc2)NC32C(=O)Nc3ccccc32)cc1` (some centres undefined) belongs no less than 19 µM.
As to `O=C(/C=C/c1c(Cl)cccc1Cl)c1ccc(OCCN2CCCC2)cc1`, the concentration for 50% growth inhibition (GI50) in [1] is greater than 80 µg/mL.
The same measure, in the same setting: to `O=C(/C=C/c1ccc(Cl)cc1Cl)c1ccc(OCCN2CCCC2)cc1` belongs 24.7 µg/mL (≈ 63.3 µM).
On to `CCCCCCCCCCCCCCCCC/C=C\CCCCCCCC(=O)N1CC[C@H](OP(=O)([O-])OCC[N+](C)(C)C)C1`, for which the inhibition at 100 µM in test [2] is 4.7%; in [3], 10.1%; in test [4], 0.3%; in [5], 22.6%.
In the same order, the values of `CCCCCC/C=C\CCCCCCCC(=O)N1CC[C@H](OP(=O)([O-])OCC[N+](C)(C)C)C1` are 4.7%, 10.1%, 0.3% and 22.6%.
For the molecule `O=C(/C=C/c1ccc(OCCN2CCCC2)cc1)c1ccc(Cl)cc1Cl`, the GI50 in test [1] was greater than 80 µg/mL.
As for `Cc1cc(=O)oc2cc(NC(=O)CN3CCCC3)ccc12`, the IC50 in [7] came to 4.38 µM; in test [8], 4.8 µM.
For the molecule `COc1ccc(/C=C2\CN(/C=C/c3ccccc3)C[C@]3(C2=O)[C@H](c2ccc(OC)cc2)[C@@H](Cc2ccccc2)NC32C(=O)Nc3ccccc32)cc1` (some centres undefined), the half-inhibitory concentration (IC50) in [6] (Homo sapiens, FaDu, 48 h) was no less than 19 µM.
With `N#CC1=C(N)OC2=C(c3ccccc3C2=O)C12C(=O)Nc1ccc(Cl)cc12` (centres undefined), the IC50 was no less than 3.6 µM in [9] and no less than 53 µM in [10].
Regarding `CCCCCCCCCCCCCCCCCC/C=C\CCCCCCCC(=O)N1CCC[C@@H]1OP(=O)([O-])OCC[N+](C)(C)C`, the inhibition at 100 µM in [2] is 4.7%; in test [3], 10.1%; in [4] it was 0.3%; in test [5], 22.6%.
Regarding `O=C1Nc2ccccc2C12N[C@H](Cc1ccccc1)[C@@H](c1ccccc1Br)[C@@]21CN(/C=C/c2ccccc2)C/C(=C\c2ccccc2Br)C1=O` (some centres undefined), the half-inhibitory concentration (IC50) in [6] (Homo sapiens, FaDu, 48 h) is no less than 19 µM.
`O=C1Nc2ccccc2C12N[C@H](Cc1ccccc1)[C@@H](c1ccc(Br)cc1)[C@@]21CN(/C=C/c2ccccc2)C/C(=C\c2ccc(Br)cc2)C1=O` (some centres undefined): in [6] (Homo sapiens, FaDu, 48 h), the IC50 is no less than 19 µM.
For the molecule BLEOMYCIN, in test [6] (fadu), the IC50 is 31 µM.
In the case of `CCCCCCCC/C=C\CC(=O)N1CCC[C@H]1COP(=O)([O-])OCC[N+](C)(C)C`, the inhibition at 100 µM in [2] stood at 4.7%; in [3], 10.1%; in [4] it was 0.3%; in test [5], 91%.
On to `Cc1ccccc1/C=C1\CN(/C=C/c2ccccc2)C[C@]2(C1=O)[C@H](c1ccccc1C)[C@@H](Cc1ccccc1)NC21C(=O)Nc2ccccc21` (some centres undefined), for which the IC50 in test [6] (Homo sapiens, FaDu, 48 h) stood at 23.5 µM.
In the case of `CC(=O)Oc1ccc(C(=O)/C=C2/C(=O)Nc3ccc(S(=O)(=O)N4CCOCC4)cc32)cc1`, the IC50 in test [11] worked out at 5.07 µM.
Regarding `COc1cccc(/C=C2\CN(/C=C/c3ccccc3)C[C@]3(C2=O)[C@H](c2cccc(OC)c2)[C@@H](Cc2ccccc2)NC32C(=O)Nc3ccccc32)c1` (some centres undefined), the IC50 in [6] (Homo sapiens, FaDu, 48 h) is no less than 19 µM.
Consider `CCCCCC/C=C\CCCCCCCC(=O)N1CC[C@@H](OP(=O)([O-])OCC[N+](C)(C)C)C1`, for which the inhibition at 100 µM in [2] is 4.7%; in test [3], 10.1%; in test [4], 0.3%; in test [5], 22.6%.
On to `Cc1cc(=O)oc2cc(NC(=O)[C@@H]3CCCN3S(=O)(=O)c3ccc(Cl)cc3)ccc12`, for which the 50% inhibitory concentration (IC50) in test [7] is 27.3 µM; in test [8] it was 7.05 µM.
Regarding `CCCCCCCCCCCCCCCCCC/C=C\CCCCCCCC(=O)N1CCC[C@H]1OP(=O)([O-])OCC[N+](C)(C)C`, the inhibition at 100 µM in test [2] came out at 4.7%; in test [3], 10.1%; in test [4] it was 0.3%; in test [5], 22.6%.
